US20160271155A1, “Vitamin Formulations” (NESTEC S.A., priority 2013, published 2016)

What was measured:
[1] = Particle size of B9:stevioside solutions; assay type: physicochemical; conditions: Homogenization for 5 min and heat at 80° for 5 min; no unit in table (b98 speaks of nm)
From the text: In certain instances, the stevioside: B9 complex comprises a nanoparticle, or a nanomicelle, with a characteristic size distribution of approximately 2 nm to about 4 nanometers. This size, along with their physical and chemical properties, is believed to be important regarding their bioavailability enhancement properties. Nanoparticle size distribution can be measured using Dynamic Light Scattering (DLS).

[2] = test system: Caco-2 cell monolayer; test: Absorption assessment in Caco-2 cell monolayer; assay type: in vitro ADME
From the text: The Caco-2 cell monolayer model is the standard for predicting human oral absorption. The test samples included: B9:stevioside at 1:0; 1:4; 1:10 and 1:20.
Table 4 tabulates the permeability of methylfolate calcium (B9) in Caco-2 monolayer cell culture.

[3] = Absorption assessment in a rat model (oral pharmacokinetics); assay type: in vivo, Sprague Dawley rat; conditions: rats, oral gavage
From the text: Each group (formulation) had 8 rats (n=8).
Vertical bars represent one standard error of the means (n=8).
The table contains various pharmacokinetic parameters in rats orally administered with various methylfolate Ca (B9) formulations. Shown as Average±SD (% over the 1:0 control formulation).

[4] = Concentration of B9 in water and solution appearance at B9:stevioside ratios (HPLC); conditions: for Solution Appearance: 15 mg/mL B9 in water
Description: Vitamin B9 (5-methyl folate, MW 459.46) was formulated using stevioside to form a complex.
All water solutions were prepared to contain 15 mg/mL B9 and filtered before HPLC analysis.

[5] = dose equivalent to 19 mg/70 kg person, n=8, Average±SD

Particle Size MN [1]: 1,865
Particle Size MV [1]: 1,917
permeability in Caco-2 cell monolayer assay ([2]; Caco-2 monolayer): permeable
Permeation enhancement (over 1:0) ([2]; Caco-2 monolayer, 76 μg/mL B9, 2 hr): 1.00
Papp (A-B) ([2]; Caco-2 monolayer, 76 μg/mL B9, assay duration 2 hr): 5.89 ± 0.245 10^−6 · cm· s^−1
predicted oral absorption ([2]; predicted from the Caco-2 value): 70-80%
Caco-2 value (rounded) ([2]; text summary of Table 4, unit not given): 6
AUC0-∞, % over the 1:0 control formulation ([3]; 19 mg/70 kg person equivalent): (100) %
AUC^0-12, % over the 1:0 control formulation ([3]; 19 mg/70 kg person equivalent): (100) %
CL, % over the 1:0 control formulation ([3]; 19 mg/70 kg person equivalent): (100) %
Cmax, % over the 1:0 control formulation ([3]; 19 mg/70 kg person equivalent): (100) %
MRT0-∞, % over the 1:0 control formulation ([3]; 19 mg/70 kg person equivalent): (100) %
T1/2, % over the 1:0 control formulation ([3]; 19 mg/70 kg person equivalent): (100) %
Tmax, % over the 1:0 control formulation ([3]; 19 mg/70 kg person equivalent): (100) %
Vss, % over the 1:0 control formulation ([3]; 19 mg/70 kg person equivalent): (100) %
CL [3, 5]: 0.69 ± 0.06 mL/h kg^−1
Cmax [3, 5]: 0.63 ± 0.04955 µg/mL
MRT0-∞ [3, 5]: 12.41 ± 2.40 h
T1/2 [3, 5]: 8.60 ± 1.92 h
Tmax [3, 5]: 1.59 ± 0.36 h
Vss [3, 5]: 0.0077 ± 0.00095 L/kg
Solution Appearance ([4]; Homogenization for 5 min and heat at 80° for 5 min): Suspension
Concentration (mg/mL in water) ([4]; Homogenization for 5 min and heat at 80° for 5 min, prepared to contain 15 mg/mL B9, filtered before HPLC): 9.2 mg/mL
Solution Appearance ([4]; No homogenization or heat): Suspension
SMILES: CN1c2c(nc(N)[nH]c2=O)NCC1CNc1ccc(C(=O)N[C@@H](CCC(=O)[O-])C(=O)O)cc1.CN1c2c(nc(N)[nH]c2=O)NCC1CNc1ccc(C(=O)N[C@@H](CCC(=O)[O-])C(=O)O)cc1.[Ca+2] (stereo partly drawn) [B9:ST 1:0]
